Laboratory results as given in ChEMBL document CHEMBL4808232, “Discovery of IDO1 inhibitors containing a decahydroquinoline, decahydro-1,6-naphthyridine, or octahydro-1H-pyrrolo[3,2-c]pyridine scaffold” (Bioorg Med Chem Lett, 2021).

Assays:
[1] = target: T1, Indoleamine 2,3-dioxygenase 1 (Homo sapiens, UniProt P14902); assay: Inhibition of IDO1 in human whole blood; type: tissue-based
[2] = Clearance in Beagle dog at 0.05 mg/kg, iv; type: ADME, organism-based, Canis lupus familiaris; conditions: in vivo
[3] = target: T1, Indoleamine 2,3-dioxygenase 1; assay: Inhibition of IDO1 in human HeLa cells assessed as production of N-formylkynurenine using tryptophan as substrate in presence of inactivated fetal bovine serum; type: cell-based
[4] = MRT in Beagle dog at 0.05 mg/kg, iv; type: ADME, organism-based, Canis lupus familiaris; conditions: in vivo
[5] = Unbound clearance in male Wistar Han rat at 0.05 mg/kg, iv; type: ADME, organism-based; conditions: in vivo
[6] = MRT in male Wistar Han rat at 0.05 mg/kg, iv; type: ADME, organism-based; conditions: male, Wistar Han, in vivo, read-out: MRT
[7] = target: T1, Indoleamine 2,3-dioxygenase 1; assay: Inhibition of IDO1 in human whole blood assessed as unbound concentration; type: tissue-based
[8] = Clearance in male Wistar Han rats at 0.05 mg/kg, iv; type: ADME, organism-based; conditions: rat, in vivo
[9] = Unbound clearance in Beagle dog at 0.05 mg/kg, iv; type: ADME, organism-based, Canis lupus familiaris; conditions: in vivo

T1 sequence (P14902 whole entry): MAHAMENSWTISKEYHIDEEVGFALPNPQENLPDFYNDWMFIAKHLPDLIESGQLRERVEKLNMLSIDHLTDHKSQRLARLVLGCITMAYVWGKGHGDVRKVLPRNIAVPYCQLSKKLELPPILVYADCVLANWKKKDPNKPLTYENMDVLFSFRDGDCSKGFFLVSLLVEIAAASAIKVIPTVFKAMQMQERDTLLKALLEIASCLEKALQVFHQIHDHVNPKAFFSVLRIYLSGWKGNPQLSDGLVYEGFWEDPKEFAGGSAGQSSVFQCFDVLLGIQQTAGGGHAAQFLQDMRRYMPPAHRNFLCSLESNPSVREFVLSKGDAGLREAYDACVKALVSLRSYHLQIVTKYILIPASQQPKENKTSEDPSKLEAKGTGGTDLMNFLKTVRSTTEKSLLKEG

IC50 [1]: 43 nM
clearance [2]: 9 mL/min/kg
IC50 [3]: 1.9 nM
MRT [4]: 8.1 h
CL free [5]: 1613 mL/min/kg
MRT [6]: 2.9 h
IC50 [7]: 0.73 nM
clearance [8]: 22 mL/min/kg
CL free [9]: 727 mL/min/kg
Structure (SMILES): CC(C(=O)Nc1ccc(Cl)cc1)N1CCC2C(CCCN2C(=O)OC2CC2)C1 (stereo in doubt; 27)
